Experimental findings from US8563741B2, “CDK inhibitors containing a zinc binding moiety” (Curis, Inc., priority 2007, dated 2013) are described below.

One series concerns the target T1, CDK2/cyclinE (Homo sapiens, UniProt P24941).
T1 construct: C-terminal 6His-tagged, recombinant full-length CDK2 (MW=34 kDa); 6His (C); made in house; host or cells: Sf21 cells (baculovirus)
Description: CDK activity assay with p33 ATP, CDK2/cyclinE. Conditions: 1 μM ATP. In kind it is biochemical. The method, then: CDK2/cyclinE (Accession Number for CDK2; EMBL M68520, for cyclinE1; GenBank NM_001238):
C-terminal 6His-tagged, recombinant full-length CDK2 (MW=34 kDa) in complex with N-terminal GST-tagged, recombinant full-length cyclinE1 (MW=74 kDa) were expressed with baculovirus system in Sf21 cells. Recombinant proteins were purified using Ni2+/NTA agarose and the purity of recombinant protein complex was measured to be around 76% by SDS-PAGE and Coomassie blue staining. Specific Activity of recombinant CDK2/cyclinE was 1336 U/mg, where one unit of CDK2/cylinE1 activity is defined as 1 nmol phosphate incorporated into 0.1 mg/ml histone H1 per minute at 30° C. with a final ATP concentration of 100 μM. Enzyme was stored with concentration of 0.1 mg/ml in 50 mM Tris/HCl pH 7.5, 150 mM NaCl, 0.03% Brij-35, 0.1 mM EGTA, 0.2 mM PMSF, 1 mM benzamidine, 0.1% 2-mercaptoethanol, 270 mM sucrose.

A further series deals with T2, CDK9/cyclinT1 (Homo sapiens, UniProt P50750).
T2 construct: C-terminal 6His-tagged, full-length recombinant, human cdk9 (MW=44 kDa); 6His (C); made in house; host or cells: Sf21 insect cells (baculovirus)
T2 sequence (P50750 whole entry): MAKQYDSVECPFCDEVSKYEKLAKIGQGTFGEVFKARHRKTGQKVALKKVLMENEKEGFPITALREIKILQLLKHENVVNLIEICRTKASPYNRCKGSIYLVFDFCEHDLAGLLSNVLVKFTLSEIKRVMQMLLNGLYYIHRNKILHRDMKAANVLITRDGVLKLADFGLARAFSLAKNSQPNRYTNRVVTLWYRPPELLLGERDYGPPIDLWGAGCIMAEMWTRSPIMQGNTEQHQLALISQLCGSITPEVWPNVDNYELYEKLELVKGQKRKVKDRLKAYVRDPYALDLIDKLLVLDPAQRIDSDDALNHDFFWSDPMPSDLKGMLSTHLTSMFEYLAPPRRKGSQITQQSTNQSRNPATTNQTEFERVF
T2 sequence (O60563 whole entry partner): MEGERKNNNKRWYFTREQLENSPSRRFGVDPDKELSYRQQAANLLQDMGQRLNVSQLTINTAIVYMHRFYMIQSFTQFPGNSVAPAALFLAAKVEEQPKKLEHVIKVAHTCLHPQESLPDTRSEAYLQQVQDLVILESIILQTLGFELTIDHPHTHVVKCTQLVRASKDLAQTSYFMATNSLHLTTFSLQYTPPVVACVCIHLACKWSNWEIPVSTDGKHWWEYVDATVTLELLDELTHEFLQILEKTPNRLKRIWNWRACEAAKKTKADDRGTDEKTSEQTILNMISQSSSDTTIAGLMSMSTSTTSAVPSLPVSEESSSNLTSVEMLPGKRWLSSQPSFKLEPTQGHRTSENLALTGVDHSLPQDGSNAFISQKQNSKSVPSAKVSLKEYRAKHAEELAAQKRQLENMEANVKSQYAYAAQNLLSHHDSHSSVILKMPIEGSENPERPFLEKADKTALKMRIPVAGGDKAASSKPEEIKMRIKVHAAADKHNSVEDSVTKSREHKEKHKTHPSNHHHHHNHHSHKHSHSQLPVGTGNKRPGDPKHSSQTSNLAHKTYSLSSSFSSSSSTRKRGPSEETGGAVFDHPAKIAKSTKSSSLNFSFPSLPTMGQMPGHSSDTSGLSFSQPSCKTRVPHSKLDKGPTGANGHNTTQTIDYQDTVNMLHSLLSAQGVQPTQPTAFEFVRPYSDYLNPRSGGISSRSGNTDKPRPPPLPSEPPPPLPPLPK
Kind of series: CDK activity assay with p33 ATP, CDK9/cyclinT1. It counts as biochemical. Conditions: 1 μM ATP. As for the experimental part: CDK9/cyclinT1 (Accession Number for CDK9; GenBank AF517840, for Cyclin T1; GenBank NM_001240)
C-terminal 6His-tagged, full-length recombinant, human cdk9 (MW=44 kDa) were co-expressed with untagged, full-length human cyclin T1 (MW=80.79 kDa) with baculovirus system in Sf21 insect cells. Recombinant protein complex was purified with Ni^2+/NTA agarose. Purity of recombinant protein was measured to be 50% by SDS-PAGE and Coomassie blue staining Specific Activity of purified enzyme was measured to be186 U/mg, where one unit of cdk9/cyclin T1 activity is defined as 1 nmol phosphate incorporated into 100 μM PDKtide ([…]) (SEQ ID NO. 3), per minute at 30° C. with a final ATP concentration of 100 μM. Enzyme was stored at a concentration of 0.1 mg/ml in 50 mM Tris-HCl, pH 7.5, 300 mM NaCl, 0.1 mM EGTA, 0.03% Brij-35, 270 mM sucrose, 1 mM benzamidine, 0.1% 2-mercaptoethanol, 0.2 mM PMSF.
PDKtide (Substrate for CDK9):
Synthetic peptide substrate with sequence of [[…]] (SEQ ID NO. 3), MW=4771.4.

In series [1] the test system is HL60 AML xenograft tumors. Kind of series: Anti-tumor activity in the HM60 AML nude mouse xenograft model. In kind it is in vivo. Conditions: for tumor growth (in words): compound 8 30 mg/Kg, compound 9 60 mg/Kg daily in 30% CAPTISOL
The method, then: FIG. 2 is a graph of tumor size versus time for mice bearing HL60 AML xenograft tumors receiving 30 mg/Kg compound 8 in 30% CAPTISOL iv daily, 60 mg/Kg compound 9 in 30% CAPTISOL iv daily or vehicle only.
(d) An In Vivo Study of the Anti-Tumor Activity of Compounds 8 and 9 in 30% CAPTISOL in the HM60 AML Nude Mouse Xenograft Model
Mice were divided into three groups of 4 mice each. Tumor volumes at the commencement of treatment were 157±56 mm^3. One group of mice received 30 mg/Kg compound 8 daily in 30% CAPTISOL, while a second group received 60 mg/Kg compound 9 in 30% CAPTISOL daily. The third group received an equivalent volume of vehicle daily.

In series [2] the test system is OPM2 Multiple Myeloma xenograft tumors. Kind of series: Anti-tumor activity in the OPM2 Multiple Myeloma nude mouse xenograft model. In kind it is in vivo. As to conditions: 60 mg/Kg iv daily in 30% CAPTISOL
As for the experimental part: FIG. 3 is a graph of tumor size versus time for mice bearing OPM2 Multiple Myeloma xenograft tumors receiving either 60 mg/Kg compound 9 in 30% CAPTISOL iv daily or vehicle only.
(e) An In Vivo Study of the Anti-Tumor Activity of Compound 9 in 30% CAPTISOL in the OPM2 Multiple Myeloma Nude Mouse Xenograft Model
Mice were divided into two groups of 7 mice each. Treatment began when the tumor sizes were 276±46 mm^3. Compound 9 in 30% CAPTISOL was administered to the animals daily at 60 mg/Kg iv.

Series [3] relates to A375 Melanoma xenograft tumors. Kind of series: Anti-tumor activity in the A375 Melanoma nude mouse xenograft model. In kind it is in vivo. As to conditions: 60 mg/Kg ip daily in 30% CAPTISOL
As for the experimental part:
FIG. 1 is a graph of tumor size versus time for mice bearing A375 Melanoma xenograft tumors receiving either 60 mg/Kg compound 8 in 30% CAPTISOL iv daily or vehicle only.
(c) An In Vivo Study of the Anti-Tumor Activity of Compound 8 in 30% CAPTISOL in the A375 Melanoma Nude Mouse Xenograft Model
Mice were divided into two groups of 5 to 6 mice each. Tumor volumes at the commencement of treatment were 560±230 mm^3. Compound 8 in 30% CAPTISOL was administered daily (60 mg/Kg ip) to one group of animals, while the second group of animals received an equal volume of vehicle.

For `CC(C)(C)c1cnc(CSc2cnc(NC(=O)Cc3ccc(OCCCC(=O)NO)cc3)s2)o1` [Compound 9, 4-(4-(2-(5-((5-tert-butyloxazol-2-yl)methylthio)thiazol-2-ylamino)-2-oxoethyl)phenoxy)-N-hydroxybutanamide], the 50% inhibitory concentration (IC50) against CDK2/cyclinE and on CDK9/cyclinT1 was under 0.1 µM in each case. The “decrease in tumor size” value in series [1] (60 mg/Kg daily in 30% CAPTISOL, after 10 days, vehicle about 230% change) is “about 50%”. The “tumor growth (in words)” value in series [1] and in series [2] was “able to attenuate tumor growth” each time. Besides, the “increase in tumor size” value in series [2] (after 10 days, vehicle about 450% increase) is given as about 50%.
Take `CC(C)(C)c1cnc(CSc2cnc(NC(=O)CCCCCCC(=O)NO)s2)o1` [Compound 8, N^1-(5-((5-tert-butyloxazol-2-yl)methylthio)thiazol-2-yl)-N^8-hydroxyoctanediamide]: the 50% inhibitory concentration (IC50) on CDK2/cyclinE and at CDK9/cyclinT1 was under 0.1 µM in each case. Further, the “tumor growth (in words)” value in series [3] and in series [1] was “able to attenuate tumor growth” each time. For the same molecule, the “increase in tumor size” value is reported as 50% in series [3] (after 10 days, vehicle about 130% increase) and about 90% in series [1] (30 mg/Kg daily in 30% CAPTISOL, after 10 days, vehicle about 230% change).
On to `CC(C)(C)c1cnc(CSc2cnc(NC(=O)C3CCN(c4ncc(C(=O)NO)cn4)CC3)s2)o1` [Compound 20, 2-(4-(5-((5-tert-butyloxazol-2-yl)methylthio)thiazol-2-ylcarbamoyl)piperidin-1-yl)-N-hydroxypyrimidine-5-carboxamide], for which the melting point is 181 to 183 °C. On CDK2/cyclinE, this molecule registered a concentration for half-maximal inhibition (IC50) of under 0.1 µM. Besides, on CDK9/cyclinT1, the IC50 was under 0.1 µM.
